The values below are quoted from earlier work in patent publication US20090136550A1, “MODIFIED RELEASE FORMULATIONS OF DILTIAZEM” (Capricorn Pharma Inc., priority 2007, published 2009).

Where a name gives a salt, the structure may show the parent alone.

`COc1ccc([C@@H]2Sc3ccccc3N(CCN(C)C)C(=O)[C@@H]2OC(C)=O)cc1` [diltiazem hydrochloride]: the water solubility result is “highly water soluble”.
